ChEMBL document CHEMBL1142222, “A-803467, a potent and selective Nav1.8 sodium channel blocker, attenuates neuropathic and inflammatory pain in the rat” (Proc Natl Acad Sci U S A, 2007)

Columns and labels:
[1] = molecular target: Sodium channel protein type 10 subunit alpha (Rattus norvegicus, UniProt Q62968); experiment: Inhibition of Nav1.8 channel in rat dorsal root ganglion neurons assessed as blockade of TTX-R current by patch clamp method; assay type: tissue-based
[2] = tested on: Rattus norvegicus; experiment: Analgesic activity in ip dosed rat chronic constriction injury model of mechanical allodynia; assay type: functional

Sodium channel protein type 10 subunit alpha, sequence (Q62968 whole entry): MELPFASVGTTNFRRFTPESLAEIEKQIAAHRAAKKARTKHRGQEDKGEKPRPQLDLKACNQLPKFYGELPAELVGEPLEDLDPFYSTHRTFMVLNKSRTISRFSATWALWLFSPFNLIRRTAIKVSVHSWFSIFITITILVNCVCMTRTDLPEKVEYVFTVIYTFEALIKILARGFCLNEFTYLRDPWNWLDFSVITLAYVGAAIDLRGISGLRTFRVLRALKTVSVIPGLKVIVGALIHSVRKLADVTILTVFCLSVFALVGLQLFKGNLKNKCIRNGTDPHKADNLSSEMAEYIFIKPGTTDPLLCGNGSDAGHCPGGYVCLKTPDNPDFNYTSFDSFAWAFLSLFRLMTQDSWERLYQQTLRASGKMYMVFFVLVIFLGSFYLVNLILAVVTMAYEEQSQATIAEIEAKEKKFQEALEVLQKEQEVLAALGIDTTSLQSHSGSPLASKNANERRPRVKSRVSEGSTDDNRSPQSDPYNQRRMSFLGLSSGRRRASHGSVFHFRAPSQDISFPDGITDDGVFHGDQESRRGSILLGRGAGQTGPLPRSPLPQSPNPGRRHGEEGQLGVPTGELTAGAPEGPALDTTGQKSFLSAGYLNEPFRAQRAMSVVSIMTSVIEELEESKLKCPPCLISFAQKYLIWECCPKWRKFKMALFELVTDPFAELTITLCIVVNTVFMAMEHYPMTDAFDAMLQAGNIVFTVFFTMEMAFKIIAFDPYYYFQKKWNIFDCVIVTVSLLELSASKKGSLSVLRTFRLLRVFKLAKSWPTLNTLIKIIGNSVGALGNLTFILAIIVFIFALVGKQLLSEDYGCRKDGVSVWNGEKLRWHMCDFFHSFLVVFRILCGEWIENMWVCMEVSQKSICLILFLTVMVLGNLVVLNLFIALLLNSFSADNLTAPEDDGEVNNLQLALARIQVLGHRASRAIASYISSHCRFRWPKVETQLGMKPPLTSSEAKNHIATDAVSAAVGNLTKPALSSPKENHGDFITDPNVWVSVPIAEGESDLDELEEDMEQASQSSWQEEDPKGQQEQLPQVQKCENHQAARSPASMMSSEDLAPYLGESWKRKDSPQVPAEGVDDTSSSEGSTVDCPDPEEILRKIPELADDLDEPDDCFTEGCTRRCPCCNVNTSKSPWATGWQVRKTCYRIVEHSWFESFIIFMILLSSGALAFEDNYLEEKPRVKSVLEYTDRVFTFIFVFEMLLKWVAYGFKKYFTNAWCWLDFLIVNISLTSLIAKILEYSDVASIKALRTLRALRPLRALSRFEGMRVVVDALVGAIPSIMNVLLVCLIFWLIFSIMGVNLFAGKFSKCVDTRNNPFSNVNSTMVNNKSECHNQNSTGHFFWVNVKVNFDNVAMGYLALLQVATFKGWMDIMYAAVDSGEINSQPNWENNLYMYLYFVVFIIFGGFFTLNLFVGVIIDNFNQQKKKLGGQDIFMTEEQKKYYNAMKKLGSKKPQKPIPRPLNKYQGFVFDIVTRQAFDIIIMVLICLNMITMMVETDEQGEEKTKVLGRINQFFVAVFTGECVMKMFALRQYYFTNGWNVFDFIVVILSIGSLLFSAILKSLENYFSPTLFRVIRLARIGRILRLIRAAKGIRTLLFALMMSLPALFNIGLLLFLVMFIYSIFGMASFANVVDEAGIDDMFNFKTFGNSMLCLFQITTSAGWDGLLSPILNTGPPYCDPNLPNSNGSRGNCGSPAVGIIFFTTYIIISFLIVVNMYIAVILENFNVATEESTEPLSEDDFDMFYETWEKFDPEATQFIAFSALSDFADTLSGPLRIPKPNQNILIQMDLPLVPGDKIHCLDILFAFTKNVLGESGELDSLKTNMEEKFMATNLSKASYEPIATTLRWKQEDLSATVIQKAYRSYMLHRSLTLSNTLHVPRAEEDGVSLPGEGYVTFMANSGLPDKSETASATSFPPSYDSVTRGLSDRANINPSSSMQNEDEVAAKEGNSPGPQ

Compound | IC50 [1] [µM] | ED50 [2] [mg/kg]
Cc1cccc(C)c1OCC(C)N (stereo not drawn) [MEXILETINE] | > 30 | 
NCC1(CC(=O)O)CCCCC1 [GABAPENTIN] |  | 40
Nc1nnc(-c2cccc(Cl)c2Cl)c(N)n1 [LAMOTRIGINE] |  | 20
